The results in this text go back to patent publication US12227482B2, “Compounds and compositions for the treatment of cancer” (The Regents of the University of California, priority 2016, dated 2025).

Common to all, as to type: cell-based
The test system of assay [1] is A549 cells. Nature of the assay: Cell viability (CellTiter-Glo ATP content) in A549 cells. As to conditions: Homo sapiens, A549, 72 h, 72 hours treatment, cell survival by CellTiter-Glo, 2% fetal bovine serum. The method, then:
(§1) Logarithmically growing A549, LOX and MelJuSo cells (ATCC) were plated in antibiotic-free RPMI medium (Coming) supplemented with 2% fetal bovine serum (Gemini Bio-products) at a density of 5,000 cells per well in clear-bottom 96-well plates. The next day cells were treated (triplicates) with increasing doses of a compound of the present disclosure (dissolved in DMSO) and DMSO vehicle controls (final DMSO concentration of 0.5%) for 72 hours and subsequently assessed for cell viability by measuring ATP content with CellTiter-Glo Luminescent Cell Viability Assay (Promega). Signal intensity was measured on a Glomax™ 96 Microplate Luminometer (Promega) and percent cell survival was calculated based on the reading of vehicle control cells set as 100%.
Background: Cellular ATP, detected with luciferase, serves as a proxy for viable cell number.

Assay [2] relates to LOX cells. Nature of the assay: Cell viability (CellTiter-Glo ATP content) in LOX cells. The following applies: LOX, 72 h, 72 hours treatment, cell survival by CellTiter-Glo, 2% fetal bovine serum. As to the method: as §1
Assay [3] relates to MelJuSo cells. Nature of the assay: Cell viability (CellTiter-Glo ATP content) in MelJuSo cells. The following applies: Homo sapiens, MEL-JUSO, 72 hours treatment, cell survival by CellTiter-Glo, 2% fetal bovine serum. The method, then:
as §1

In general, IC50 refers to the midpoint of a concentration-inhibition curve. `CN(C)CCNC(=O)CNC(=O)C1(C)C(c2cccs2)C(c2ccc(F)cc2)=NN1c1ccc(F)cc1F` (stereo not drawn) [Compound 107, 1-(2,4-difluorophenyl)-N-(2-(2-(dimethylamino)ethylamino)-2-oxoethyl)-3-(4-fluorophenyl)-5-methyl-4-(thiophen-2-yl)-4,5-dihydro-1H-pyrazole-5-carboxamide]: the values for the half-inhibitory concentration (IC50) in assay [1], in assay [2] and in assay [3] were greater than 2 µM, greater than 2 µM and 1 to 2 µM, respectively.

As for `CCCCC1C(c2ccc(F)cc2)=NN(c2ccc(F)cc2F)C1(C)C(=O)N(C)CCCOC` (stereo not drawn) [Compound 26, 4-butyl-1-(2,4-difluorophenyl)-3-(4-fluorophenyl)-N-(3-methoxypropyl)-N,5-dimethyl-4,5-dihydro-1H-pyrazole-5-carboxamide], the concentration for half-maximal inhibition (IC50) in assay [1], in assay [2] and in assay [3] was greater than 2 µM in each case.

As for `CN1CCOC(CNC(=O)C2(C)C(c3ccc(Cl)o3)C(c3ccc(F)cc3F)=NN2c2ccc(F)cc2F)C1` (stereo not drawn) [Compound 135, 4-(5-chlorofuran-2-yl)-1,3-bis(2,4-difluorophenyl)-5-methyl-N-((4-methylmorpholin-2-yl)methyl)-4,5-dihydro-1H-pyrazole-5-carboxamide], the 50% inhibitory concentration (IC50) in assay [1], in assay [2] and in assay [3] was less than 0.25 µM throughout.

As for `CCCCC1C(c2ccc(F)cc2)=NN(c2ccc(Cl)cc2)C1(C)C(=O)NCCCC(C)(C)CO` (stereo not drawn) [Compound 12, 4-butyl-1-(4-chlorophenyl)-3-(4-fluorophenyl)-N-(5-hydroxy-4,4-dimethylpentyl)-5-methyl-4,5-dihydro-1H-pyrazole-5-carboxamide], the IC50 was greater than 2 µM in assay [1], 1 to 2 µM in assay [2] and 1 to 2 µM in assay [3].

For the compound `CCCCC1C(c2ccc(F)cc2)=NN(c2ccc(F)c(Cl)c2)C1(C)C(=O)NCCCCC(C)(C)O` (stereo not drawn) [Compound 11, 4-butyl-1-(3-chloro-4-fluorophenyl)-3-(4-fluorophenyl)-N-(5-hydroxy-5-methylhexyl)-5-methyl-4,5-dihydro-1H-pyrazole-5-carboxamide], the concentration for half-maximal inhibition (IC50) in assay [1] is greater than 2 µM; in assay [2], greater than 2 µM; in assay [3], 1 to 2 µM.

Regarding `CCCCC1C(c2ccc(F)cc2)=NN(c2ccc(F)cc2Cl)C1(C)C(=O)NCCCC(C)(C)CO` (stereo not drawn) [Compound 22, 4-butyl-1-(2-chloro-4-fluorophenyl)-3-(4-fluorophenyl)-N-(5-hydroxy-4,4-dimethylpentyl)-5-methyl-4,5-dihydro-1H-pyrazole-5-carboxamide], the concentration for half-maximal inhibition (IC50) in assay [1], in assay [2] and in assay [3] was greater than 2 µM throughout.

In the case of `CCCCC1C(c2ccc(F)cc2)=NN(c2ccccc2)C1(C)C(=O)NCCCC(C)(C)CO` (stereo not drawn) [Compound 1, 4-butyl-3-(4-fluorophenyl)-N-(5-hydroxy-4,4-dimethylpentyl)-5-methyl-1-phenyl-4,5-dihydro-1H-pyrazole-5-carboxamide], the half-inhibitory concentration (IC50) lay within 0.5 to 1 µM in assay [1], 0.5 to 1 µM in assay [2] and 0.25 to 0.5 µM in assay [3].

As to `CC1(C(=O)NCC(=O)N2CCOCC2)C(c2cccs2)C(c2ccc(F)cc2)=NN1c1ccc(F)cc1F` (stereo not drawn) [Compound 106, 1-(2,4-difluorophenyl)-3-(4-fluorophenyl)-5-methyl-N-(2-morpholino-2-oxoethyl)-4-(thiophen-2-yl)-4,5-dihydro-1H-pyrazole-5-carboxamide], the half-inhibitory concentration (IC50) in assay [1], in assay [2] and in assay [3] was greater than 2 µM throughout.

As to `COC(=O)CNC(=O)C1(C)C(c2cccs2)C(c2ccc(F)cc2)=NN1c1ccc(F)cc1F` (stereo not drawn) [Compound 103, methyl 2-(1-(2,4-difluorophenyl)-3-(4-fluorophenyl)-5-methyl-4-(thiophen-2-yl)-4,5-dihydro-1H-pyrazole-5-carboxamido)acetate], the concentration for half-maximal inhibition (IC50) in assay [1] is 0.5 to 1 µM; in assay [2], 0.5 to 1 µM; in assay [3], less than 0.25 µM.

With `Cc1ccc(C2C(c3ccc(F)cc3)=NN(c3ccc(F)cc3F)C2(C)C(=O)NCCCC(C)(C)CO)s1` (stereo not drawn) [Compound 99, 1-(2,4-difluorophenyl)-3-(4-fluorophenyl)-N-(5-hydroxy-4,4-dimethylpentyl)-5-methyl-4-(5-methylthiophen-2-yl)-4,5-dihydro-1H-pyrazole-5-carboxamide], the IC50 was greater than 2 µM in assay [1], greater than 2 µM in assay [2] and 1 to 2 µM in assay [3].

For `CC1(C(=O)NCCNC(=O)CCCCC2SC[C@@H]3NC(=O)N[C@H]23)C(c2cccs2)C(c2ccc(F)cc2)=NN1c1ccc(F)cc1F` (stereo partly drawn) [Compound 125, 1-(2,4-difluorophenyl)-3-(4-fluorophenyl)-5-methyl-N-(2-(5-((3aS,6aR)-2-oxohexahydro-1H-thieno[3,4-d]imidazol-4-yl)pentanamido)ethyl)-4-(thiophen-2-yl)-4,5-dihydro-1H-pyrazole-5-carboxamide], the 50% inhibitory concentration (IC50) in assay [1], in assay [2] and in assay [3] was greater than 2 µM each time.

For the compound `CC(C)(CO)CCCNC(=O)C1(C)C(c2ccc(Cl)o2)C(c2ccc(F)cc2F)=NN1c1ccc(F)cc1F` (stereo not drawn) [Compound 133, 4-(5-chlorofuran-2-yl)-1,3-bis(2,4-difluorophenyl)-N-(5-hydroxy-4,4-dimethylpentyl)-5-methyl-4,5-dihydro-1H-pyrazole-5-carboxamide], the half-maximal inhibitory concentration (IC50) in assay [1], in assay [2] and in assay [3] was less than 0.25 µM each time.

`CCCCC1C(c2ccc(Cl)cc2)=NN(c2ccccc2)C1(C)C(=O)NCCOC` (stereo not drawn) [Compound 58, 4-butyl-3-(4-chlorophenyl)-N-(2-methoxyethyl)-5-methyl-1-phenyl-4,5-dihydro-1H-pyrazole-5-carboxamide]: the results for the 50% inhibitory concentration (IC50) in assay [1], in assay [2] and in assay [3] were greater than 2 µM, 1 to 2 µM and 1 to 2 µM, respectively.

For `CCCCC1C(c2ccc(F)cc2)=NN(c2ccc(F)cc2F)C1(C)C(=O)NCC(=O)O` (stereo not drawn) [Compound 82, 2-(4-butyl-1-(2,4-difluorophenyl)-3-(4-fluorophenyl)-5-methyl-4,5-dihydro-1H-pyrazole-5-carboxamido)acetic acid], the IC50 in assay [1], in assay [2] and in assay [3] was greater than 2 µM throughout.

In the case of `CCCCC1C(c2ccc(F)cc2)=NN(c2ccccc2)C1(C)C(=O)NCc1ccc(CN2CCOCC2)cc1` (stereo not drawn) [Compound 80, 4-butyl-3-(4-fluorophenyl)-5-methyl-N-(4-(morpholinomethyl)benzyl)-1-phenyl-4,5-dihydro-1H-pyrazole-5-carboxamide], the IC50 in assay [1], in assay [2] and in assay [3] was greater than 2 µM in each case.

Turning to `CCCCC1C(c2ccc(F)cc2)=NN(c2ccccc2)C1(C)C(=O)NCC1CCCCC1` (stereo not drawn) [Compound 51, 4-butyl-N-(cyclohexylmethyl)-3-(4-fluorophenyl)-5-methyl-1-phenyl-4,5-dihydro-1H-pyrazole-5-carboxamide], the IC50 in assay [1], in assay [2] and in assay [3] was greater than 2 µM in each case.

Turning to `CC(C)(CO)CCCNC(=O)C1(C)C(c2ccco2)C(c2ccc(F)cc2)=NN1c1ccc(F)cc1F` (stereo not drawn) [Compound 91, 1-(2,4-difluorophenyl)-3-(4-fluorophenyl)-4-(furan-2-yl)-N-(5-hydroxy-4,4-dimethylpentyl)-5-methyl-4,5-dihydro-1H-pyrazole-5-carboxamide], the IC50 is 0.25 to 0.5 µM in assay [1], 0.25 to 0.5 µM in assay [2] and less than 0.25 µM in assay [3].

On to `CCCCC1C(c2ccc(F)cc2)=NN(c2ccccc2)C1(C)C(=O)NCC(C)(C)CN(C)C` (stereo not drawn) [Compound 50, 4-butyl-N-(3-(dimethylamino)-2,2-dimethylpropyl)-3-(4-fluorophenyl)-5-methyl-1-phenyl-4,5-dihydro-1H-pyrazole-5-carboxamide], for which the IC50 in assay [1], in assay [2] and in assay [3] was greater than 2 µM throughout.

`CC1(C(=O)NCC(=O)NC2COC2)C(c2cccs2)C(c2ccc(F)cc2)=NN1c1ccc(F)cc1F` (stereo not drawn) [Compound 108, 1-(2,4-difluorophenyl)-3-(4-fluorophenyl)-5-methyl-N-(2-(oxetan-3-ylamino)-2-oxoethyl)-4-(thiophen-2-yl)-4,5-dihydro-1H-pyrazole-5-carboxamide]: the IC50 in assay [1], in assay [2] and in assay [3] was greater than 2 µM in each case.

On to `CCCCC1C(c2ccc(F)cc2)=NN(c2ccccc2)C1(C)C(=O)NCCS(C)(=O)=O` (stereo not drawn) [Compound 79, 4-butyl-3-(4-fluorophenyl)-5-methyl-N-(2-(methylsulfonyl)ethyl)-1-phenyl-4,5-dihydro-1H-pyrazole-5-carboxamide], for which the IC50 in assay [1], in assay [2] and in assay [3] was greater than 2 µM throughout.

For `COCCNC(=O)C1(C)C(c2ccc(Cl)s2)C(c2ccc(F)cc2)=NN1c1ccc(F)cc1F` (stereo not drawn) [Compound 102, 4-(5-chlorothiophen-2-yl)-1-(2,4-difluorophenyl)-3-(4-fluorophenyl)-N-(2-methoxyethyl)-5-methyl-4,5-dihydro-1H-pyrazole-5-carboxamide], the 50% inhibitory concentration (IC50) in assay [1] lay within 1 to 2 µM; in assay [2] it was 0.5 to 1 µM; in assay [3], 0.25 to 0.5 µM.

On to `CCCCC1C(c2ccc(F)cc2)=NN(c2ccccc2)C1(C)C(=O)NCc1ccc(O)c(OC)c1` (stereo not drawn) [Compound 66, 4-butyl-3-(4-fluorophenyl)-N-(4-hydroxy-3-methoxybenzyl)-5-methyl-1-phenyl-4,5-dihydro-1H-pyrazole-5-carboxamide], for which the half-maximal inhibitory concentration (IC50) in assay [1], in assay [2] and in assay [3] was greater than 2 µM throughout.
